Test [1] has as its target T1, Autotaxin (Homo sapiens, UniProt Q13822). The experiment in a line: Inhibition of autotoxin assessed as choline production after 60 to 180 mins using lysophosphatidylcholine as a substrate by colorimetric method.
Test [2] addresses T1, Autotaxin. The experiment in a line: Inhibition of autotoxin assessed as choline release from LPC using lysophosphatidylcholine as substrate.

One may read the Ki as the dissociation constant of the complex between target and ligand, obtained from inhibition or displacement. As for `CCCCCCCCCCCCCCCC(=O)N[C@@H](Cc1ccc(OCc2cc(C)c(OC)c(C)c2)cc1)[C@@H](O)CP(=O)(O)O`, at Autotaxin [1], the Ki came to 1.6 µM.
Turning to `CCCCCCCCCCCCCCCC(=O)N[C@@H](Cc1ccc(OCc2ncc(C)c(OC)c2C)cc1)[C@@H](O)CP(=O)(O)O`, the Ki on Autotaxin [1] was determined as 1 µM.
Regarding `CCCCCCCCCCCCCCCC(=O)N[C@@H](Cc1ccc(OCc2ncc(C)c(OC)c2C)cc1)[C@H](O)CP(=O)(O)O`, the Ki at Autotaxin [1] worked out at 3.9 µM.
The same measure, in the same setting: as for `CCCCCCCCCCCCCCCC(=O)N[C@@H](Cc1ccc(OCc2ccccc2)cc1)[C@@H](O)CP(=O)(O)O`, the figure is 27 µM.
Take `CCCCCCCCCCCCCCCC(=O)N[C@@H](Cc1ccc(OCc2ccccc2)cc1)[C@H](O)CP(=O)(O)O`: the inhibitory constant (Ki) at Autotaxin [1] was 83 µM.
Same read-out and setting: as for `CCCCCCCCCCCCCCCC(=O)N[C@@H](Cc1ccc(OCc2ccccn2)cc1)[C@@H](O)CP(=O)(O)O`, the figure is 4.4 µM; as for `CCCCCCCCCCCCCCCC(=O)N[C@@H](Cc1ccc(OCc2ccccn2)cc1)[C@H](O)CP(=O)(O)O`, 11 µM; as for `CCCCCCCCCCCCCCCC(=O)N[C@@H](Cc1ccc(OCc2cc(OC)ccn2)cc1)[C@@H](O)CP(=O)(O)O`, 1.5 µM.
On the same count and under the same terms, then `CCCCCCCCCCCCCCCC(=O)N[C@@H](Cc1ccc(OCc2cc(OC)ccn2)cc1)[C@H](O)CP(=O)(O)O`, with 3.5 µM; and `CCCCCCCCCCCCCCCC(=O)N[C@@H](Cc1ccc(OCc2ncc(C)cc2C)cc1)[C@@H](O)CP(=O)(O)O`, with 3.9 µM; and `CCCCCCCCCCCCCCCC(=O)N[C@@H](Cc1ccc(OCc2ncc(C)cc2C)cc1)[C@H](O)CP(=O)(O)O`, with 399 µM.
Take `CCCCCCCCCCCCCCCC(=O)N[C@@H](Cc1ccc(OCc2ncc(C)c(OCC)c2C)cc1)[C@@H](O)CP(=O)(O)O`: the Ki at Autotaxin [1] came to 4.7 µM.
Same read-out and setting: as for `CCCCCCCCCCCCCCCC(=O)N[C@@H](Cc1ccc(OCc2ncc(C)c(OC(C)C)c2C)cc1)[C@H](O)CP(=O)(O)O`, the figure is 11.1 µM; as for `CCCCCCCCCCCCCCCC(=O)N[C@@H](Cc1ccc(OCc2ncc(C)c(OCC)c2C)cc1)[C@H](O)CP(=O)(O)O`, 6.2 µM; as for `CCCCCCCCCCCCCCCC(=O)N[C@@H](Cc1ccc(OCc2ncc(C)c(OC(C)C)c2C)cc1)[C@@H](O)CP(=O)(O)O`, 8.8 µM.
For the compound `CCCCCCCCCCCCCCCC(=O)N[C@@H](Cc1ccc(OCc2cc(OCC(F)(F)F)ccn2)cc1)[C@@H](O)CP(=O)(O)O`, the Ki at Autotaxin [1] was found to be 11.6 µM.
Still for that read-out and setting: then `CCCCCCCCCCCCCCCC(=O)N[C@@H](Cc1ccc(OCc2cc(OCC(F)(F)F)ccn2)cc1)[C@H](O)CP(=O)(O)O`, with 22.5 µM; and `CCCCCCCCCCCCCCCC(=O)N[C@@H](Cc1ccc(OCc2ccc(C)cc2C)cc1)[C@@H](O)CP(=O)(O)O`, with 1.8 µM; and `CCCCCCCCCCCCCCCC(=O)N[C@@H](Cc1ccc(OCc2ccc(C)cc2C)cc1)[C@H](O)CP(=O)(O)O`, with 4.8 µM.
Same read-out and setting: then `CCCCCCCCCCCCCCCC(=O)N[C@@H](Cc1ccc(OCc2ccc(Cl)cc2Cl)cc1)[C@@H](O)CP(=O)(O)O`, with 584 µM; and `CCCCCCCCCCCCCCCC(=O)N[C@@H](Cc1ccc(OCc2ccc(Cl)cc2Cl)cc1)[C@H](O)CP(=O)(O)O`, with 1060 µM.
Same read-out and setting: then `CCCCCCCCCCCCCCCC(=O)N[C@@H](Cc1ccc(OCc2cc(C)c(OC)c(C)c2)cc1)[C@H](O)CP(=O)(O)O`, with 5.3 µM.
Take `CCCCCCCCCCCCCCCC(=O)N[C@@H](Cc1ccc(OCc2cc(C)cc(C)c2)cc1)[C@@H](O)CP(=O)(O)O`: the Ki on Autotaxin [1] was 88.9 µM.
On the same count and under the same terms, as for `CCCCCCCCCCCCCCCC(=O)N[C@@H](Cc1ccc(OCc2cc(C)cc(C)c2)cc1)[C@H](O)CP(=O)(O)O`, the figure is 217 µM; as for `CCCCCCCCCCCCCCCC(=O)N[C@@H](Cc1ccc(OCc2ccc(OC)c(C)c2)cc1)[C@@H](O)CP(=O)(O)O`, 4.3 µM.
On the same count and under the same terms, as for `CCCCCCCCCCCCCCCC(=O)N[C@@H](Cc1ccc(OCc2ccc(OC)c(C)c2)cc1)[C@H](O)CP(=O)(O)O`, the figure is 26.5 µM.
Consider `O=C1S/C(=C\c2cccc(B(O)O)c2)C(=O)N1Cc1ccc(F)cc1`, for which, at Autotaxin [2], the inhibition constant Ki stood at 0.094 µM.
Consider `O=C(O)c1cccc(/C=C2\SC(=O)N(Cc3ccc(F)cc3)C2=O)c1`, for which the Ki on Autotaxin [2] amounted to 0.187 µM.
As for `CCCCCCCCCCCCCC(=O)Nc1ccc(CP(=O)(O)O)cc1`, the Ki on Autotaxin [2] was 0.367 µM.
Same read-out and setting: as for `CCCCCCCCCCCCCCCCCC(=O)OC[C@@H](O)CC(Br)P(=O)(O)O` (stereo not given in full), the figure is 40.1 µM.

Values taken from ChEMBL document CHEMBL1629508, “Synthesis and structure-activity relationships of tyrosine-based inhibitors of autotaxin (ATX)” (Bioorg Med Chem Lett, 2010).
